Reference: patent US20090258870A1, “NOVEL ANSAMITOCIN DERIVATIVES” (priority 2008, published 2009)
Values after ≈ are worked out from the molar mass of the structure shown.

Columns and labels:
[1] = tested on: SK-OV-3; experiment: Growth inhibition of SK-OV-3 cells, MTT assay; assay type: cell-based, human; conditions: for Antiproliferative activity IC50: SK-OV-3, ovarian carcinoma, 5 days, MTT
Protocol: (§1) For the detailed evaluation of their biological profile as anti-cancer agents, cultured human tumor cell lines were treated with the new ansamitocin derivatives. In particular, the 19-fluoro-20-demethoxyansamitocin P3 (F-A), 19-chloro-20-demethoxyansamitocin P3 (Cl-A), 19-bromo-20-demethoxyansamitocin P3 (Br-A), and the 20-demethoxy-19-vinylansamitocin P3 (VI) were tested for their inhibitory effect on cell growth of different cell lines, namely KB-3-1, U-937, PC-3, SK-OV-3, A-498, A-431, and A-549, in comparison to natural biosynthesis product Ansamitocin P-3 (AP-3). Growth inhibition was measured in microtiter plates. 60 μl of serial dilutions of the test compounds were added to aliquots of 120 μl of the suspended cells (50000/ml). After 5 days the growth was determined using a MTT assay, except for U-937, where the WST-1 assay from Roche was employed.

[2] = tested on: PC-3; experiment: Growth inhibition of PC-3 cells, MTT assay; assay type: cell-based, human; conditions: for Antiproliferative activity IC50: PC-3, prostate carcinoma, 5 days, MTT
Protocol: as §1

[3] = tested on: A-549; experiment: Growth inhibition of A-549 cells, MTT assay; assay type: cell-based, human; conditions: for Antiproliferative activity IC50: A-549, lung carcinoma, 5 days, MTT
Protocol: as §1

[4] = tested on: A-431; experiment: Growth inhibition of A-431 cells, MTT assay; assay type: cell-based, human; conditions: for Antiproliferative activity IC50: A-431, epidermoid carcinoma, 5 days, MTT
Protocol: as §1

[5] = tested on: U-937; experiment: Growth inhibition of U-937 cells, WST-1 assay; assay type: cell-based, human; conditions: for Antiproliferative activity IC50: U-937, lymphoma, 5 days, WST-1
Protocol: as §1

[6] = tested on: A-498; experiment: Growth inhibition of A-498 cells, MTT assay; assay type: cell-based, human; conditions: for Antiproliferative activity IC50: A-498, kidney carcinoma, 5 days, MTT
Protocol: as §1

[7] = tested on: KB-3-1; experiment: Growth inhibition of KB-3-1 cells, MTT assay; assay type: cell-based, human; conditions: for Antiproliferative activity IC50: KB-3-1, cervix carcinoma, 5 days, MTT
Protocol: as §1

[8] = tested on: cultured human tumor cell lines; experiment: Antiproliferative activity on cultured human tumor cell lines (panel, general statements); assay type: cell-based; conditions: in general, across the cell lines tested
Protocol: as §1

Molecule | Antiproliferative activity IC50 [1] | Antiproliferative activity IC50 [2] | Antiproliferative activity IC50 [3] | Antiproliferative activity IC50 [4] | Antiproliferative activity IC50 [5] | Antiproliferative activity IC50 [6] | Antiproliferative activity IC50 [7] | relative activity among the compounds tested [8] | IC50 ([1]; Homo sapiens, SK-OV-3, 120 h, read-out: Antiproliferative activity IC50) | IC50 ([2]; Homo sapiens, PC-3, 120 h, read-out: Antiproliferative activity IC50) | IC50 ([3]; Homo sapiens, A549, 120 h, read-out: Antiproliferative activity IC50) | IC50 ([4]; Homo sapiens, A-431, 120 h, read-out: Antiproliferative activity IC50) | IC50 ([5]; Homo sapiens, U-937, 120 h, read-out: Antiproliferative activity IC50) | IC50 ([6]; Homo sapiens, A498, 120 h, read-out: Antiproliferative activity IC50) | IC50 ([7]; Homo sapiens, KB 3-1, 120 h, read-out: Antiproliferative activity IC50)
19-chloro-20-demethoxyansamitocin P3 [Cl-A] | 0.1 ng/mL | 0.12 ng/mL | 0.4 ng/mL | 0.15 ng/mL | 0.035 ng/mL | 3 ng/mL | 0.35 ng/mL |  |  |  |  |  |  |  | 
19-fluoro-20-demethoxyansamitocin P3 [F-A] | 0.035 ng/mL | 0.035 ng/mL | 0.11 ng/mL | 0.04 ng/mL | 0.01 ng/mL | 2 ng/mL | 0.18 ng/mL | most active |  |  |  |  |  |  | 
C=Cc1ccc2cc1N(C)C(=O)CC(OC(=O)C(C)C)C1(C)OC1C(C)C1CC(O)(NC(=O)O1)C(OC)C=CC=C(C)C2 (stereo not shown) [20-demethoxy-19-vinylansamitocin P3] |  |  |  |  |  |  |  | most active |  |  |  |  |  |  | 
COc1cc2cc(c1Cl)N(C)C(=O)C[C@H](OC(=O)C(C)C)[C@]1(C)O[C@@H]1[C@H](C)[C@@H]1C[C@@](O)(NC(=O)O1)[C@H](OC)/C=C/C=C(\C)C2 [AP-3, Ansamitocin P-3, reference compound] | 0.03 ng/mL | 0.035 ng/mL | 0.1 ng/mL | 0.05 ng/mL | 0.0035 ng/mL | 1.1 ng/mL | 0.11 ng/mL |  |  |  |  |  |  |  | 
CO[C@@H]1/C=C/C=C(\C)Cc2ccc(Br)c(c2)N(C)C(=O)C[C@H](OC(=O)C(C)C)[C@]2(C)O[C@H]2[C@H](C)[C@@H]2C[C@@]1(O)NC(=O)O2 [Br-A, 19-bromo-20-demethoxyansamitocin P3] | 0.05 ng/mL | 0.1 ng/mL | 0.3 ng/mL | 0.1 ng/mL | 0.03 ng/mL | 4 ng/mL | 0.3 ng/mL |  |  |  |  |  |  |  | 
C=Cc1ccc2cc1N(C)C(=O)C[C@H](OC(=O)C(C)C)[C@]1(C)O[C@H]1[C@H](C)[C@@H]1C[C@@](O)(NC(=O)O1)[C@H](OC)/C=C/C=C(\C)C2 [VI, 20-demethoxy-19-vinylansamitocin P3] |  |  |  |  |  |  |  |  | 0.04 ng/mL (≈ 0.067 nM) | 0.1 ng/mL (≈ 0.168 nM) | 0.14 ng/mL (≈ 0.235 nM) | 0.04 ng/mL (≈ 0.067 nM) | 0.05 ng/mL (≈ 0.0838 nM) | 2 ng/mL (≈ 3.35 nM) | 0.4 ng/mL (≈ 0.67 nM)
